{"source": "patent US20020133846A1", "about": "“Method for protecting plants” (priority 1996, published 2002)", "key": {"[1]": {"test_system": "Cercospora sp.", "experiment": "Action against Cercospora sp. (leaf spot) on chili, field", "format": "in vivo", "conditions": "Table 17, leaves after sixth spraying, comp. I alone 5 ppm"}, "[2]": {"test_system": "Alternaria solani", "experiment": "Action against Alternaria solani in tomatoes in the open", "conditions": "Table 24, comp. I alone 2.5 g a.i. per ha", "experimental": "Tomato plants on a 7 m^2 plot were sprayed at 7-day intervals with a spray mixture prepared wettable powder of the active ingredient; in total 9 times. Infection was naturally. For ion, the leaf infested with the fungus was measured."}, "[3]": {"test_system": "Mycosphaerella fijiensis", "experiment": "Action against Mycosphaerella fijiensis in bananas", "conditions": "Table 23, comp. I alone 50 g a.i. per ha", "experimental": "40 banana plants in a 300 m^2 plot were sprayed at 17-19 day intervals with a spray mixture prepared with the wettable powder of the active ingredient; in total 6 times. Infection was naturally. For evaluation, the leaf infested with the fungus was measured."}, "[4]": {"test_system": "Colletotrichum sp.", "experiment": "Action against Colletotrichum sp. (anthracnose) on chili, field", "format": "in vivo", "conditions": "Table 16, chili fruits after fifth spraying, comp. I alone 5 ppm", "description": "Effects on crop yield: In a plot of land about 10 m^2 (test location: Cikampek, Java, Indonesia), chili plants were sprayed a total of 7 times at intervals of about 7 days with 500-700 liters of spray mixture per hectare. Three days after the first spraying, the plants were infected artificially with the fungus."}, "[5]": {"test_system": "Cercospora nicotianae", "experiment": "Action against Cercospora nicotianae on tobacco plants", "format": "in vivo"}, "[6]": {"test_system": "Peronospora parasitica Emwa", "experiment": "Action against Peronospora parasitica Emwa in Arabidopsis thaliana (Ws), rRNA fungal probe", "format": "in vivo", "conditions": "Hyaloperonospora parasitica, in Arabidopsis thaliana; for inhibition at 10 µM: BTH alone 0.01 mM"}, "[7]": {"test_system": "Peronospora parasitica isolate Emwa", "experiment": "Fungal resistance to Peronospora parasitica Emwa after BTH treatment, Ws and NIM1-overexpressing lines", "format": "in vivo", "conditions": "10 μM BTH"}, "[8]": {"experiment": "Action on crop yield of chili, field", "format": "in vivo", "conditions": "Table 18, harvest after sixth spraying, comp. I alone 5 ppm"}, "[9]": {"test_system": "Peronospora tabacina", "experiment": "Action against Peronospora tabacina on tobacco plants", "experimental": "Tobacco plants (6 weeks old) were sprayed with a formulated solution of the test compound. Four days after treatment, the plants were inoculated with a sporangia suspension of the fungus, kept at high humidity for 4 to 5 days and then incubated further under a normal day/night sequence. Evaluation of the symptoms in the tests was based on the leaf surface infested with fungus. The infestation of the untreated plants corresponded to 0 % action."}, "[10]": {"test_system": "Erysiphe graminis", "experiment": "Action against Erysiphe graminis on barley (residual-protective / systemic)", "experimental": "Residual-protective action: Barley plants about 8 cm in height were sprayed to drip point with an aqueous spray mixture (max. 0.02 % active ingredient) and were dusted 3 to 4 days later with conidia of the fungus. The infected plants were stood in a greenhouse at 22°. Fungus infestation was generally evaluated 10 days after infection.\nSystemic action: Barley plants about 8 cm in height were watered with an aqueous spray mixture (max. 0.002 % active ingredient, based on the volume of the soil). […] The plants were dusted with conidia of the fungus 3 to 4 days later. The infected plants were stood in a greenhouse at 22°. Fungus infestation was generally evaluated 10 days after infection."}, "[11]": {"test_system": "Pyricularia oryzae", "format": "in vivo"}, "[12]": {"test_system": "Colletotrichum lagenarium", "experiment": "Action against Colletotrichum lagenarium on Cucumis sativus L., soil application", "format": "in vivo"}, "[13]": {"test_system": "Pyricularia oryzae", "format": "in vivo", "conditions": "Table 13, comp. I alone 6 ppm"}, "[14]": {"test_system": "Peronospora parasitica NoCo2", "experiment": "Action against Peronospora parasitica NoCo2 in Arabidopsis thaliana (Col-0), rRNA fungal probe", "format": "in vivo", "conditions": "Table 29, Col-0, BTH alone 0.01 mM"}, "[15]": {"test_system": "Erysiphe graminis", "experiment": "Action against Erysiphe graminis in wheat, field trials", "experimental": "In field trials (10 m^2), winter wheat in the growth phase was sprayed with a spray mixture prepared with a wettable powder of the active ingredient. Infection was naturally. 10 days post-infection, the fungus infestation was assessed."}, "[16]": {"test_system": "Peronospora parasitica NoCo2", "experiment": "whole plant or invertebrate", "format": "in vivo", "conditions": "Hyaloperonospora parasitica, in Arabidopsis thaliana"}, "[17]": {"test_system": "Puccinia recondita", "experiment": "Action against Puccinia recondita in wheat", "conditions": "Table 19, comp. I alone 100 mg a.i. per liter", "experimental": "7-day-old wheat plants were sprayed to drip point with a spray mixture prepared from a formulated active ingredient, or combination of active ingredients. After 4 days, the treated plants were infected with a conidia suspension of the fungus, and the treated plants were subsequently incubated for 2 days at a relative atmospheric humidity of 90-100% and 20 C. 10 days post-infection, the fungus infestation was assessed."}, "[18]": {"test_system": "Phytophthora infestans", "format": "in vivo"}, "[19]": {"test_system": "Pyricularia oryzae", "format": "in vivo", "remark": "listed apart in the source"}, "[20]": {"test_system": "PR-1 gene expression", "experiment": "Northern analysis of PR-1 gene expression after BTH treatment, Ws and NIM1-overexpressing lines", "format": "in vivo, Arabidopsis thaliana", "conditions": "for PR-1 gene expression: 10 μM BTH"}, "[21]": {"test_system": "Pseudomonas syringae DC3000", "experiment": "Infection with Pseudomonas syringae DC3000 in Arabidopsis, Example 17", "conditions": "wild-type plants pretreated with INA (0.25 mg/ml)", "experimental": "Six-week-old wild-type (±INA treatment), and cim3 plants were inoculated with a suspension of P. syringae DC3000 and the progress of the disease was followed by monitoring the growth of the bacteria extracted from infected leaves over time. […] The plants were also visually inspected for disease symptoms.\nFor this example, cultures of Pseudomonas syringae pv. tomato strain DC3000 were grown on King's B media (agar plates or liquid) plus rifampicin (50 jig/ml) at 28° C. […] An overnight culture was diluted and resuspended in 10 mM MgCT2 to a density of 2-5×10^5 cells per ml and injected into Arabidopsis leaves. Injections were carried out by creating a small hole with a 28 gauge needle midway up the leaf and then injecting approximately 250 μl of the diluted bacterial solution with a 1 cc syringe. At various time points, 10 random samples consisting of 3 random leaf punches from a #1 cork borer were taken from 10 plants from each treatment. The 3 leaf punches were placed in an eppendorf tube with 300 μl of 10 MM MgCl2 and ground with a pestle. The resulting bacterial suspension was appropriately diluted and plated on King's B media plus rifampicin (50 μg/ml) and grown for 4 days at 28° C. Bacterial colonies were counted and the data were subjected to Student's t statistical analysis (Sokal and Rohlf (1981), Biometry, 2nd ed. New York: W.H. Freeman and Company). […]"}, "[22]": {"test_system": "Peronospora parasitica (NoCo2)", "experiment": "Resistance to Peronospora parasitica (NoCo2) in Arabidopsis, Example 17", "format": "in vivo", "conditions": "wild type Col-0 plants treated with INA 0.25 mg/ml, seven days after inoculation"}}, "note": "Where two headings read alike, the source gives them in different places.", "data": [{"smiles": "CSC(=O)c1cccc2nnsc12", "note": "[BTH]", "values": [{"measurement": "% action O (observed)", "setting": "[1]", "value": 76, "unit": "%"}, {"measurement": "% action O (observed)", "setting": "[2]", "value": 32, "unit": "%"}, {"measurement": "% action O (observed)", "setting": "[3]", "value": 19, "unit": "%"}, {"measurement": "% action O (observed)", "setting": "[4]", "value": 55, "unit": "%"}, {"measurement": "% action O (observed)", "setting": "[5]; Table 9, comp. I alone 0.2 ppm", "value": 0, "unit": "%"}, {"measurement": "% action O (observed)", "setting": "[5]; Table 9, comp. I alone 2 ppm", "value": 17, "unit": "%"}, {"measurement": "% action O (observed)", "setting": "[5]; Table 9, comp. I alone 6 ppm", "value": 55, "unit": "%"}, {"measurement": "% action O (observed)", "setting": "[5]; Table 9, comp. I alone 20 ppm", "value": 78, "unit": "%"}, {"measurement": "% action O (observed)", "setting": "[5]; Table 10, comp. I alone 0.2 ppm", "value": 0, "unit": "%"}, {"measurement": "% action O (observed)", "setting": "[5]; Table 10, comp. I alone 2 ppm", "value": 17, "unit": "%"}, {"measurement": "% action O (observed)", "setting": "[5]; Table 10, comp. I alone 6 ppm", "value": 55, "unit": "%"}, {"measurement": "% action O (observed)", "setting": "[5]; Table 10, comp. I alone 20 ppm", "value": 78, "unit": "%"}, {"measurement": "inhibition at 3 µM", "setting": "[6]; Table 30, Ws, BTH alone 0.003 mM, read-out: Fungal Growth Inhibition % O (observed)", "value": 0, "unit": "%"}, {"measurement": "inhibition at 10 µM", "setting": "[6]; Table 30, Ws, read-out: Fungal Growth Inhibition % O (observed)", "value": 20, "unit": "%"}, {"measurement": "inhibition at 10 µM", "setting": "[6]; Table 31, Ws, read-out: Fungal Growth Inhibition % O (observed)", "value": 30, "unit": "%"}, {"measurement": "inhibition at 10 µM", "setting": "[6]; Table 32, Ws, read-out: Fungal Growth Inhibition % O (observed)", "value": 30, "unit": "%"}, {"measurement": "inhibition at 10 µM", "setting": "[6]; text summary of Tables 30-32, Ws plants, read-out: fungal growth inhibition", "value": "20 to 30", "unit": "%"}, {"measurement": "resistance to P. parasitica", "setting": "[7]; NIM1-overexpressing lines", "value": "complete or almost complete resistance"}, {"measurement": "susceptibility to P. parasitica (Emwa)", "setting": "[7]; wild-type Ws plants", "value": "still susceptible"}, {"measurement": "Crop yield in kg per hectare O (observed)", "setting": "[8]", "value": 459, "unit": "kg per hectare"}, {"measurement": "% action O (observed)", "setting": "[9]; Table 28, comp. I alone 0.03 ppm", "value": 14, "unit": "%"}, {"measurement": "% action O (observed)", "setting": "[9]; Table 28, comp. I alone 0.1 ppm", "value": 34, "unit": "%"}, {"measurement": "% action O (observed)", "setting": "[9]; Table 28, comp. I alone 0.3 ppm", "value": 88, "unit": "%"}, {"measurement": "% action O (observed)", "setting": "[10]; Table 3, comp. I alone 0.6 ppm", "value": 14, "unit": "%"}, {"measurement": "% action O (observed)", "setting": "[10]; Table 3, comp. I alone 2 ppm", "value": 33, "unit": "%"}, {"measurement": "% action O (observed)", "setting": "[11]; Table 15, comp. I alone 0.05 ppm", "value": 5, "unit": "%"}, {"measurement": "% action O (observed)", "setting": "[11]; Table 15, comp. I alone 0.1 ppm", "value": 18, "unit": "%"}, {"measurement": "% action O (observed)", "setting": "[11]; Table 15, comp. I alone 0.25 ppm", "value": 39, "unit": "%"}, {"measurement": "% action O (observed)", "setting": "[11]; Table 15, comp. I alone 0.5 ppm", "value": 65, "unit": "%"}, {"measurement": "% action O (observed)", "setting": "[12]; Table 8, comp. I alone 0.02 ppm", "value": 6, "unit": "%"}, {"measurement": "% action O (observed)", "setting": "[12]; Table 8, comp. I alone 0.2 ppm", "value": 36, "unit": "%"}, {"measurement": "% action O (observed)", "setting": "[12]; Table 8, test 1, comp. I alone 0.06 ppm", "value": 0, "unit": "%"}, {"measurement": "% action O (observed)", "setting": "[12]; Table 8, test 3, comp. I alone 0.06 ppm", "value": 23, "unit": "%"}, {"measurement": "% action O (observed)", "setting": "[13]", "value": 15, "unit": "%"}, {"measurement": "inhibition at 10 µM", "setting": "[14]; Hyaloperonospora parasitica, in Arabidopsis thaliana, read-out: Fungal Growth Inhibition % O (observed)", "value": 0, "unit": "%"}, {"measurement": "Fungal Growth Inhibition % O (observed)", "setting": "[14]", "value": "no fungal growth inhibition"}, {"measurement": "% action O (observed)", "setting": "[15]; Table 21, comp. I alone 5 g a.i. per ha", "value": 29, "unit": "%"}, {"measurement": "% action O (observed)", "setting": "[15]; Table 22, comp. I alone 5 g a.i. per ha", "value": 29, "unit": "%"}, {"measurement": "inhibition at 30 µM", "setting": "[16]; read-out: Fungal Growth Inhibition % O (observed), Table 34, wt Col-0, BTH 0.03 mM", "value": 20.8, "unit": "%"}, {"measurement": "inhibition at 100 µM", "setting": "[16]; read-out: Fungal Growth Inhibition % O (observed), Table 34, wt Col-0, BTH 0.1 mM", "value": 85.7, "unit": "%"}, {"measurement": "% action O (observed)", "setting": "[17]", "value": 51, "unit": "%"}, {"measurement": "% action O (observed)", "setting": "[18]; Table 25, comp. I alone 5 mg a.i. per liter", "value": 14, "unit": "%"}, {"measurement": "% action O (observed)", "setting": "[18]; Table 25, comp. I alone 25 mg a.i. per liter", "value": 36, "unit": "%"}, {"measurement": "% action O (observed)", "setting": "[18]; Table 25, comp. I alone 100 mg a.i. per liter", "value": 61, "unit": "%"}, {"measurement": "% action O (observed)", "setting": "[18]; Table 25, comp. I alone 500 mg a.i. per liter", "value": 72, "unit": "%"}, {"measurement": "% action O (observed)", "setting": "[19]; Table 14, comp. I alone 0.25 kg a.i. per ha", "value": 22, "unit": "%"}, {"measurement": "% action O (observed)", "setting": "[19]; Table 14, comp. I alone 0.5 kg a.i. per ha", "value": 50, "unit": "%"}, {"measurement": "PR-1 gene expression in leaf tissue", "setting": "[20]; NIM1-overexpressing lines relative to wild-type, 100 μM BTH", "value": "much stronger and quicker"}, {"measurement": "PR-1 gene expression", "setting": "[20]; NIM1-overexpressing lines", "value": "much stronger response"}, {"measurement": "PR-1 gene expression", "setting": "[20]; wild-type Ws line", "value": "barely detectable"}]}, {"smiles": "O=C(O)c1cc(Cl)nc(Cl)c1", "note": "[INA, 2,6-dichloroisonicotinic acid]", "values": [{"measurement": "disease symptoms (visual inspection)", "setting": "[21]", "value": "nearly devoid of disease symptoms"}, {"measurement": "fungal growth (trypan blue, sporulation)", "setting": "[22]", "value": "no fungal growth"}]}]}
